US12624003B2, “Carboxylic acid containing indanyl compounds for the treatment of neurodegenerative diseases” (Celgene Corporation, priority 2020, dated 2026)

biological target: T1, S1P5 (Homo sapiens, UniProt Q9H228); assay: [35S]-GTPγS functional binding assay on CHO-S1P5 membranes; type: biochemical; conditions: membranes of CHO cells expressing recombinant S1P5 receptors; measure of S1P5 agonism
T1 construct: expressed in transfected cells; host or cells: CHO cells (membranes)
Protocol: CHO cells expressing recombinant S1P5 receptors were cultured in 500 cm^2 culture trays and, once confluent, rinsed and detached with cell-lifting buffer (10 mM HEPES, 154 mM NaCl, 6.85 mM EDTA, pH 7.4). Cells were then pelleted by centrifugation, resuspended, and homogenized in membrane preparation buffer (10 mM HEPES and 10 mM EDTA, pH 7.4) using a Polytron PT 1200E homogenizer (Kinematica, Luzern, Switzerland). Cellular proteins were pelleted by centrifugation at 48,000×g at 4° C. for 30 minutes. The resulting supernatant was discarded, and the pellet was re-suspended again in membrane preparation buffer, homogenized for a second time, and then centrifuged again as described above. The final cellular protein pellet was suspended in ice cold resuspension buffer (10 mM HEPES and 0.1 mM EDTA, pH 7.4), divided into aliquots, and stored at −80° C. until use.
Functional binding assays for [^35S]-GTPγS were performed in 96-well non-binding surface plates with a final volume of 200 μL. The test compounds were serially diluted in DMSO and added to assay plates using a Tecan D300E digital printer with a total volume of 0.4 μL. The control sphingosine-1-phosphate (S1P) was prepared separately by preparing a 400 μM stock solution from a 100 nmol pellet of SIP in 10 mM Na2CO3 with 2% s-cyclodextrin. The serial dilution of S1P was done using complete assay buffer (20 mM HEPES, 10 mM MgCl2, 100 mM NaCl, 1 mM EDTA, 0.1% fatty acid free bovine serum albumin (BSA), and 30 μg/mL saponin, pH 7.4) and transferred to wells already containing 0.4 μL DMSO. All the wells were then loaded to a total volume of 40 μL of complete assay buffer, except the non-specific binding (NSB) wells. For NSB wells, 40 μL/well of 50 μM GTPγS (Sigma Aldrich, cat #G8634, St. Louis, MO) was added to wells containing 0.4 μL of DMSO. The assay was started by the addition of 120 μL/well of CHO-S1P receptor membrane solution containing 40 μg/mL of membrane protein, 16.67 μM guanosine diphosphate (GDP; Sigma Aldrich, cat #G7127, St. Louis, MO), and 2.5 mg/mL of WGA PVT SPA beads in complete buffer. Assay plates were then sealed and incubated at room temperature with gentle agitation for 30 minutes. Next, 40 μL/well of 1 nM of [^35S]-GTPγS (PerkinElmer, cat #NEG030X250UC, Waltham, MA) in basic assay buffer (20 mM HEPES, 10 mM MgCl2, 100 mM NaCl, and 1 mM EDTA, pH 7.4) was added to the assay plates to yield a final concentration of […] and the plates were further incubated for 40 minutes at room temperature with gentle agitation. The assay was terminated by centrifugation of the plates at 1000 rpm for 3 minutes using an Eppendorf 5810R centrifuge (Eppendorf, Hamburg, Germany) and G protein bound radioactivity was quantitated using a MicroBeta2 microplate scintillation counter (PerkinElmer, Waltham, MA). As G protein bound radioactivity directly correlates to receptor activation and coupling to the G protein, this assay is a measure of S1P5 agonism.

T1 sequence (Q9H228 whole entry, species assumed): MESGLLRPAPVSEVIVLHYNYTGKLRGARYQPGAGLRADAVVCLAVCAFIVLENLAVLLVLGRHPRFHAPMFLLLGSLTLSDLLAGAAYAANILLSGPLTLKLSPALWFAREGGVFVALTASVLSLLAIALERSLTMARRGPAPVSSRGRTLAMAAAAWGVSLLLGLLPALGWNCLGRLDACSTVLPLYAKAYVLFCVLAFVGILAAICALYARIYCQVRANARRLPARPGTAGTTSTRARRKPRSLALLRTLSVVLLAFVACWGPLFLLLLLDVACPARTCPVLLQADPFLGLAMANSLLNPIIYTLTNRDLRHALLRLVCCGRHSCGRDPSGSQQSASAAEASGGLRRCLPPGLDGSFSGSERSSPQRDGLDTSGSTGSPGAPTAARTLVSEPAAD

| EC50 | Structure (SMILES) |
| --- | --- |
| 100 to 1000 nM | O=C(O)[C@H]1CCN(C2CCc3cc(-c4ccc(C5CC5)c(F)c4)ccc32)C1 (single isomer, unassigned) [Compound 37a] |
| 10 to 100 nM | O=C(Cc1c(Cl)cccc1Cl)c1ccc2c(c1)CCC2N1CCC(C(=O)O)CC1 (single isomer, unassigned) [Compound 23, 1-(5-(2-(2,6-dichlorophenyl)acetyl)-2,3-dihydro-1H-inden-1-yl)piperidine-4-carboxylic acid] |
| ≤ 10 nM | CC(C)c1ccc(-c2ccc3c(c2)CCC3N2CCC(C(=O)O)CC2)cc1Cl (stereo not shown) [Compound 33, 1-(5-(3-chloro-4-isopropylphenyl)-2,3-dihydro-1H-inden-1-yl)piperidine-4-carboxylic acid] |
| ≤ 10 nM | O=C(O)C1CCN(C2CCc3cc(-c4ccc(C5CC5)c(Cl)c4)ccc32)CC1 (single isomer, unassigned) [Compound 32b, 1-(5-(3-chloro-4-cyclopropylphenyl)-2,3-dihydro-1H-inden-1-yl)piperidine-4-carboxylic acid] |
